Reference: US20240226097A1, “METHODS OF CANCER TREATMENT USING A COMBINATION OF BTK INHIBITORS AND PI3 KINASE INHIBITORS” (priority 2021, published 2024)

Key:
Assay type in all cases: in vivo
JeKo-1 cells = test: JeKo-1 MCL xenograft mouse model, tumor growth inhibition; details: single agent, day 21
Procedure: JeKo-1 cells are of mantle cell lymphoma (MCL) origin. These cells were cultured in RPMI1640 complete medium supplemented with 10% (v/v) fetal bovine serum, and 100 μg/mL of penicillin and streptomycin. NOD/SCID mice were pre-treated with cyclophosphamide (prepared in saline, 100 mg/kg, i.p.) and disulfiram (prepared in 0.8% Tween-80 in saline, 125 mg/kg, p.o., two hours after each dose of cyclophosphamide) once daily for two days.
On the day of implantation, aggregated cells were dispersed. Four hours later, the media was removed, and the cells were collected and re-suspended in cold (4° C.) DPBS with a final concentration of 1×10^8 cells/mL. Re-suspended cells were placed on ice prior to inoculation. The right flank region of each mouse was cleaned with 75% ethanol prior to cell inoculation. Animals were then co-injected subcutaneously with 1×10^7 JeKo-1 cells in 100 μL of cell suspension in the right front flank via a 26-gauge needle.
Animals were randomly divided into six groups with 10 mice per group. The groups consisted of vehicle group (0.5% (w/v) methylcellulose solution), 7.5 mg/kg BTK-1 (dissolved in 0.5% (w/v) methylcellulose solution), 12 mg/kg Compound 2 (dissolved in 0.5% (w/v) methylcellulose solution), 36 mg/kg Compound 2 (dissolved in 0.5% (w/v) methylcellulose solution), and the combination of Compound 2/BTK-1 (12 mg/kg Compound 2 and 7.5 mg/kg BTK-1), or (36 mg/kg Compound 2 and 7.5 mg/kg BTK-1), see Table 1. […]
Both compounds were administered by oral gavage (p.o.) twice daily (BID). After implantation, primary tumor volume was measured in two dimensions using a caliper.
(§1) Individual body weight was recorded twice weekly, with mice being monitored daily for clinical signs of toxicity for the duration of the study. […]
(§2) Tumor volume was calculated using the formula: V=0.5×(a×b^2) where a and b are the long and short diameters of the tumor, respectively. Tumor growth inhibition (TGI) was calculated using the following formula: % TGI=100×[1−(treatedt/vehiclet)](treatedt=treated tumor volume at time t) and (vehiclet=vehicle tumor volume at time t)

MINO cells = test: MINO MCL xenograft mouse model, tumor growth inhibition; details: single agent, day 24
Procedure: MINO cells are of MCL origin. The MINO cells were cultured in RPMI1640 complete medium supplemented with 10% (v/v) fetal bovine serum, and 100 μg/mL of penicillin and streptomycin. On the day of implantation, aggregated cells were dispersed. Four hours later, media was removed, and the cells were collected as described above. Cells were re-suspended in cold (4° C.) PBS with a final concentration of 1×10^8 cells/mL. Re-suspended cells were placed on ice prior to inoculation. The right flank region of each mouse (NOD/SCID) was cleaned with 75% ethanol prior to cell inoculation. Animals were then injected subcutaneously with 1×10^7 MINO cells in 100 μl of cell suspension in the right front flank via a 26-gauge needle.
On day 1 after inoculation, animals were randomly divided into 6 groups with 10 mice per group according to the inoculation order. The groups consisted of vehicle group (0.5% (w/v) methylcellulose solution), 7.5 mg/kg BTK-1 (dissolved in 0.5% (w/v) methylcellulose solution), 12 mg/kg Compound 2 (dissolved in 0.5% (w/v) methylcellulose solution), 36 mg/kg Compound 2 (dissolved in 0.5% (w/v) methylcellulose solution) and the combination of Compound 2/BTK-1 (12 mg/kg Compound 2 and 7.5 mg/kg BTK-1), or (36 mg/kg Compound 2 and 7.5 mg/kg BTK-1), see Table 2. The compounds were administered by oral gavage (p.o.) twice daily (BID). After implantation, primary tumor volume was measured in two dimensions using a caliper. Compound 2 was (S)-3-(1-(8-amino-1-methylimidazo[1,5-a]pyrazin-3-yl)ethyl)-5-chloro-6-fluoro-2-isopropoxy-N-(2-(4-methylpiperazin-1-yl)ethyl)benzamide fumarate.
Mice were euthanized using carbon dioxide when their tumor volume reached 2,000 mm^3 after twice measurements, the tumor was ulcerated, or body weight loss exceeded 20%.
as §2

TMD8 cells = test: TMD8 DLBCL xenograft mouse model, tumor growth inhibition; details: single agent, day 14
Procedure: TMD8 cells are of DLBCL origin. TMD8 cells were cultured in RPMI1640 complete medium supplemented with 10% (v/v) fetal bovine serum, and 100 μg/mL of penicillin and streptomycin. On the day of implantation, aggregated cells were dispersed. Four hours later, media was removed, and the cells were collected as described above. Cells were re-suspended in cold (4° C.) PBS and same volume of matrigel was added to give a final concentration of 5×10^7 cells/mL for TMD8. Re-suspended cells were placed on ice prior to inoculation. The right flank region of each mouse (NOD/SCID) was cleaned with 75% ethanol prior to cell inoculation. Animals were then injected subcutaneously with 1×10^7 TMD8 cells in 200 μl of cell suspension in the right front flank via a 26-gauge needle.
On day 15 after inoculation, animals were randomly divided into 8 groups with 10 mice per group according to the tumor volume. The groups consisted of vehicle group (0.5% (w/v) methylcellulose solution), 2.5 mg/kg BTK-1 (dissolved in 0.5% (w/v) methylcellulose solution), 10 mg/kg Compound 1 (dissolved in 0.5% (w/v) methylcellulose solution), 30 mg/kg Compound 1 (dissolved in 0.5% (w/v) methylcellulose solution), 100 mg/kg Compound 1 (dissolved in 0.5% (w/v) methylcellulose solution) and the combination of Compound 1/BTK-1 (10 mg/kg Compound 1 and 2.5 mg/kg BTK-1), (30 mg/kg Compound 1 and 2.5 mg/kg BTK-1), or (100 mg/kg Compound 1 and 2.5 mg/kg BTK-1), see Table 3. BTK-1 and Compound 1 were administered by oral gavage (p.o.) twice daily (BID). After implantation, primary tumor volume was measured in two dimensions using a caliper. Compound 1 was (S)-3-(1-(8-amino-1-methylimidazo[1,5-a] pyrazin-3-yl)ethyl)-5-chloro-6-fluoro-2-isopropoxy-N-(2-(4-methylpiperazin-1-yl)ethyl)benzamide.
Individual body weight was recorded twice weekly, with mice being monitored daily for clinical signs of toxicity for the duration of the study. Mice were euthanized using carbon dioxide when their tumor volume reached 2,000 mm^3 after twice measurements, the tumor was ulcerated, or body weight loss exceeded 20%.
(§3) Tumor volume was calculated using the formula: V=0.5×(a×b^2) where a and b are the long and short diameters of the tumor, respectively. Tumor growth inhibition (TGI) was calculated using the formula in the above examples.

Farage cells = test: Farage DLBCL xenograft mouse model, tumor growth inhibition; details: single agent, day 25
Procedure: Farage cells are of DLBCL origin. Farage cells were cultured in RPMI1640 complete medium supplemented with 10% (v/v) fetal bovine serum, and 100 μg/mL of penicillin and streptomycin. On the day of implantation, aggregated cells were dispersed. Four hours later, media was removed and the cells were collected as described above. Cells were re-suspended in cold (4° C.) PBS and same volume of matrigel was added to give a final concentration of 1.5×10^7 cells/mL for Farage. Re-suspended cells were placed on ice prior to inoculation. The right flank region of each mouse (NCG) was cleaned with 75% ethanol prior to cell inoculation. Animals were then injected subcutaneously with 3×10^6 Farage cells in 100 μl of cell suspension in the right front flank via a 26-gauge needle.
The animals were randomly divided into 6 groups with 10 mice per group. The groups consisted of vehicle group (0.5% (w/v) methylcellulose solution), 7.5 mg/kg BTK-1 (dissolved in 0.5% (w/v) methylcellulose solution), 12 mg/kg Compound 2 (dissolved in 0.5% (w/v) methylcellulose solution), 36 mg/kg Compound 2 (dissolved in 0.5% (w/v) methylcellulose solution), and the combination of Compound 2 and BTK-1 (12 mg/kg and 7.5 mg/kg, respectively), or (36 mg/kg and 7.5 mg/kg, respectively), see Table 4. BTK-1 and Compound 2 were administered as a combination by oral gavage (p.o.) twice daily (BID). After implantation, primary tumor volume was measured in two dimensions using a caliper. Compound 2 was (S)-3-(1-(8-amino-1-methylimidazo [1,5-a] pyrazin-3-yl) ethyl)-5-chloro-6-fluoro-2-isopropoxy-N-(2-(4-methylpiperazin-1-yl) ethyl) benzamide fumarate.
as §1, §3

[1] = Bioavailability of salts of Compound 1; details: among different salts of Compound 1

C=CC(=O)N1CCC([C@@H]2CCNc3c(C(N)=O)c(-c4ccc(Oc5ccccc5)cc4)nn32)CC1 [BTK-1, (S)-7-(1-acryloylpiperidin-4-yl)-2-(4-phenoxyphenyl)-4,5,6,7-tetra-hydropyrazolo[1,5-a]pyrimidine-3-carboxamide]
% TGI (JeKo-1 cells; 7.5 mg/kg p.o. BID): 43% | % TGI (MINO cells; 7.5 mg/kg p.o. BID): 22% | % TGI (TMD8 cells; 2.5 mg/kg p.o. BID): 68% | % TGI (Farage cells; 7.5 mg/kg p.o. BID): 43%

Cc1nc([C@@H](C)c2cc(Cl)c(F)c(C(=O)NCCN3CCN(C)CC3)c2OC(C)C)n2ccnc(N)c12 [Compound 1, (S)-3-(1-(8-amino-1-methylimidazo[1,5-a]pyrazin-3-yl)ethyl)-5-chloro-6-fluoro-2-isopropoxy-N-(2-(4-methylpiperazin-1-yl)ethyl)benzamide]
% TGI (TMD8 cells; 10 mg/kg p.o. BID): 27% | % TGI (TMD8 cells; 30 mg/kg p.o. BID): 26% | % TGI (TMD8 cells; 100 mg/kg p.o. BID): 43%

Cc1nc([C@@H](C)c2cc(Cl)c(F)c(C(=O)NCCN3CCN(C)CC3)c2OC(C)C)n2ccnc(N)c12.O=C(O)/C=C/C(=O)O [Compound 2, (S)-3-(1-(8-amino-1-methylimidazo[1,5-a]pyrazin-3-yl)ethyl)-5-chloro-6-fluoro-2-isopropoxy-N-(2-(4-methylpiperazin-1-yl)ethyl)benzamide fumarate]
% TGI (JeKo-1 cells; 12 mg/kg p.o. BID): 59% | % TGI (JeKo-1 cells; 36 mg/kg p.o. BID): 62% | % TGI (MINO cells; 12 mg/kg p.o. BID): 26% | % TGI (MINO cells; 36 mg/kg p.o. BID): 36% | % TGI (Farage cells; 12 mg/kg p.o. BID): 40% | % TGI (Farage cells; 36 mg/kg p.o. BID): 52% | bioavailability [1]: high bioavailability
